Source: ChEMBL document CHEMBL1141153, “A molecular target for suppression of the evolution of antibiotic resistance: inhibition of the Escherichia coli RecA protein by N(6)-(1-naphthyl)-ADP” (J Med Chem, 2005)

Molecular target: T1, Protein RecA (Escherichia coli K-12) (UniProt P0A7G6)
T1 sequence (whole entry): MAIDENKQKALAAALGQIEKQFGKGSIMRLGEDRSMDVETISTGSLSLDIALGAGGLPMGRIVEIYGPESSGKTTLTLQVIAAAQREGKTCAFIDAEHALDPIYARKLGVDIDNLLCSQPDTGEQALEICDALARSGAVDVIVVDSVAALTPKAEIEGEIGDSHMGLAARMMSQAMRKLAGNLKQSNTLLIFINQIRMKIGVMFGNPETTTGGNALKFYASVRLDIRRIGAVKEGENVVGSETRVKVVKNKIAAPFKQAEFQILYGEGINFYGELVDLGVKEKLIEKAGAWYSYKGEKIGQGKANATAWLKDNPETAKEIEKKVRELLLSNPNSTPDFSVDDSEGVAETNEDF
Experiment: In vitro apparent inhibition constant against Escherichia coli RecA protein

Kic: 46 µM
SMILES: O=P(O)(O)OP(=O)(O)OC[C@H]1O[C@@H](n2cnc3c(Nc4cccc5ccccc45)ncnc32)[C@H](O)[C@@H]1O
